Where no end group is shown, it is not given here.
Tests used:
[1] = target: T1, PTH/PTHrP receptor (Homo sapiens, UniProt Q03431); assay: Competition radioligand binding, COS-7 cells transfected with human PTH/PTHrP receptor; details: for Binding affinity, fold weaker than PTH-(1-34): PTH/PTHrP receptor; for Binding in words, PTH/PTHrP receptor: competition with radioligand
T1 construct: expressed in transfected cells; host or cells: COS-7 cells, transient transfection, vector pcDNA-1
T1 sequence (Q03431 27-593): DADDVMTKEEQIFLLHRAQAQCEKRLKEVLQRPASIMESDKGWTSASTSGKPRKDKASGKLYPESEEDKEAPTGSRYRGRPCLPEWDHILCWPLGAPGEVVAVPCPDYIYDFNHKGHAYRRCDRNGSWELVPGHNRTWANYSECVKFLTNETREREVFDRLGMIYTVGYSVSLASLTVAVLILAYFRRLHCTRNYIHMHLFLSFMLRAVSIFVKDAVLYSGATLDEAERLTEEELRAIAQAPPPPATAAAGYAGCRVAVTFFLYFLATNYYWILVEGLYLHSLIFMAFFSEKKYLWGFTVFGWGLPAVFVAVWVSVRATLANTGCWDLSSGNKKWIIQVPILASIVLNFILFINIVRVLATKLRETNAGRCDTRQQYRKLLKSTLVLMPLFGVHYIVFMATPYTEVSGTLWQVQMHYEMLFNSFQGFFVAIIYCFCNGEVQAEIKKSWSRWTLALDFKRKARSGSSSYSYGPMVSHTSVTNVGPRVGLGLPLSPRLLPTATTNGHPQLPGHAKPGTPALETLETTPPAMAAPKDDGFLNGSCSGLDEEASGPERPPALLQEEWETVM
Protocol: (§1) The cDNAs encoding the human PTH/PTHrP receptor (Schipani, E. et al., Endocrinology 132:2157-2165 (1993)) and the human PTH-2 receptor (Usdin, T. et al., J. Biol. Chem. 270:15455-15458 (1995)) were carried on the expression vectors pcDNA-1 and pcDNAI/Amp (InVitrogen, San Diego, Calif.), respectively. COS-7 cells were cultured and transfected as described previously (Lee, C. et al., Mol. Endocrinol. 9:1269-1278 (1995)). Cells were transfected in 24-well plates using plasmid DNA (200 ng/well) purified by cesium chloride/ethidium bromide gradient centrifugation. Ligand binding and cAMP accumulation assays were performed three days after transfection, by which time the cell density reached 500,000±100,000 cells/well.
(§2) Binding reactions were performed as described previously. Id. Each well (final volume: […]) contained 26 fmole of ^125I-[Nle^8,21,Tyr^34]rPTH(1-34)NH2 (100,000 CPM) and various amounts (0.4-300 pmole) of an unlabeled competitor ligand, both diluted in binding buffer (50 mM Tris-HCl, pH 7.7, 100 mM NaCl, 5 mM KCl, 2 mM CaCl, 5% heat-inactivated horse serum, 0.5% heat-inactivated fetal bovine serum). Incubations were at room temperature for 2 hours, except for experiments involving Scatchard analysis, which were performed at 4° C. for 6 hours. At the end of the binding reaction, the cells were rinsed 3 times with 0.5 ml of binding buffer, lysed with 0.5 ml of 5M NaOH, and the entire lysate was counted. Nonspecific binding of tracer (NSB), determined in wells containing 1 μM of [NleTyr^8,21,Tyr^34]rPTH-(1-34)NH2, was ˜1% of total counts added. Maximum specific binding (B0) was calculated as the total radioactivity bound to cells in the absence of unlabeled PTH ligand, minus NSB. […] For Scatchard analyses, homologous competition binding studies were performed that used ^125I-[-NleTyr^8,21,Tyr^34]rPTH-(1-34)NH2 (26 fmole/well) and varying amounts (1.2-300 pmol) of the same unlabeled ligand. Estimates of the number of receptors/cell derived from these studies assumed a single class of binding sites and a transfection efficiency of 20% (Abou-Samra, A. B. et al., Proc. Natl. Acad. Sci (USA) 89:2732-2736 (1992)).

[2] = target: T2, PTH-2 receptor (Homo sapiens, UniProt P49190); assay: Competition radioligand binding, COS-7 cells transfected with human PTH-2 receptor; details: for Binding in words, PTH-2 receptor: competition with radioligand
T2 construct: expressed in transfected cells; host or cells: COS-7 cells, transient transfection, vector pcDNAI/Amp
Protocol: as §1, §2

[3] = target: T1, PTH/PTHrP receptor; assay: Ligand-induced intracellular cAMP accumulation, COS-7 cells expressing human PTH/PTHrP receptor; assay type: cell-based; details: for cAMP accumulation Maximum, PTH/PTHrP receptor: highest level of cAMP attained, basal 4.6 ± 0.2 not subtracted, 1h at room temperature; for cAMP agonist activity in words, PTH/PTHrP receptor: COS-7 cells
Protocol: as §1
(§3) Transfected COS-7 cells were rinsed with […] of binding buffer. 200 μl of IBMX buffer (DMEM containing 2 mM IBMX, 1 mg/ml bovine serum albumin, 35 mM Hepes-NaOH, pH 7.4) and […] of binding buffer or binding buffer containing various amounts of a PTH or PTHrP analog were then added. The plates were incubated for 60 minutes at room temperature. The buffer was then withdrawn and the cells lysed by placing the plates on powdered dry ice and adding 0.5 ml of 50 mM HCl. The acid lysate was diluted 1/30 in dH2O, and an aliquot (5-50 μl) analyzed for cAMP content by radioimmunoassay. […] The cells were then incubated for 30 minutes at room temperature, and the resulting intracellular cAMP was measured by RIA. Data were analyzed using the AssayZap software (Elsevier Science Publishers BV, Cambridge, United Kingdom).

[4] = target: T2, PTH-2 receptor; assay: Ligand-induced intracellular cAMP accumulation, COS-7 cells expressing human PTH-2 receptor; assay type: cell-based; details: for cAMP agonist activity in words, PTH-2 receptor: COS-7 cells; for cAMP accumulation Maximum, PTH-2 receptor: highest level of cAMP attained, basal 5.4 ± 0.3 not subtracted, 1h at room temperature
Protocol: as §1, §3

[5] = target: T3, human PTH-2 receptor (human, UniProt P49190 25-550); assay: cell-based or functional assay
[6] = target: T4, human PTH/PTHrP receptor (human, UniProt Q03431 27-593); assay: radioligand competition (tracer 125I-[Nle8,21,Tyr34]rPTH-(1-34)NH2) on transfected COS-7 cells, RT 2 h
T4 construct: whole, on cells; Transiently expressed on COS-7 cells
T4 sequence (looked up): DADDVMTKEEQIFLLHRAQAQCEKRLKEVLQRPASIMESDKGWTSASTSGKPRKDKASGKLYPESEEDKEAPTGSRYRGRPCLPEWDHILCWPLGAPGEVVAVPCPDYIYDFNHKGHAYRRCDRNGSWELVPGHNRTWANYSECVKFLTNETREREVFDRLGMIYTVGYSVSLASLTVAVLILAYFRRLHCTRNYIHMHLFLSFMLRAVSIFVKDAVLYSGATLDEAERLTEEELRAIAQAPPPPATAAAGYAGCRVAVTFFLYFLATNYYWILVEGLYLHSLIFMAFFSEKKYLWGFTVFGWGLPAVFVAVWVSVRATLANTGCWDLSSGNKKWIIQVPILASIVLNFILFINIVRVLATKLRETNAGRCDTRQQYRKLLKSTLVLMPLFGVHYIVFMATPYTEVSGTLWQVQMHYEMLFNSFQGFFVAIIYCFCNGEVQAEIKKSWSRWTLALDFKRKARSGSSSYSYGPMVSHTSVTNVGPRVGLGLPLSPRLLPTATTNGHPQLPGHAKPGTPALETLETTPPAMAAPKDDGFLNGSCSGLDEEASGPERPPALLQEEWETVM
Protocol: (§4) Assays were performed for 2 hours at room temperature. Data are the mean (± s.e.m.) of IC$50$ values obtained from the number of experiments indicated (n).
(§5) Binding reactions were performed as described previously. Id. […] Incubations were at room temperature for 2 hours, except for experiments involving Scatchard analysis, which were performed at 4° C. for 6 hours. At the end of the binding reaction, the cells were rinsed 3 times with 0.5 ml of binding buffer, lysed with 0.5 ml of 5M NaOH, and the entire lysate was counted. […] Estimates of the number of receptors/cell derived from these studies assumed a single class of binding sites and a transfection efficiency of 20% (Abou-Samra, A. B. et al., *Proc. Natl. Acad. Sci* (*USA*) 89:2732–2736 (1992)).

[7] = target: T3, human PTH-2 receptor; assay: as above
Protocol: as §4, §5

[8] = COS-7 cells, radioligand 125I-[Nle8,21,Y34]rPTH-(1-34)NH2, 2 hours at room temperature, mean ± s.e.m.

T3 sequence (P49190 25-550): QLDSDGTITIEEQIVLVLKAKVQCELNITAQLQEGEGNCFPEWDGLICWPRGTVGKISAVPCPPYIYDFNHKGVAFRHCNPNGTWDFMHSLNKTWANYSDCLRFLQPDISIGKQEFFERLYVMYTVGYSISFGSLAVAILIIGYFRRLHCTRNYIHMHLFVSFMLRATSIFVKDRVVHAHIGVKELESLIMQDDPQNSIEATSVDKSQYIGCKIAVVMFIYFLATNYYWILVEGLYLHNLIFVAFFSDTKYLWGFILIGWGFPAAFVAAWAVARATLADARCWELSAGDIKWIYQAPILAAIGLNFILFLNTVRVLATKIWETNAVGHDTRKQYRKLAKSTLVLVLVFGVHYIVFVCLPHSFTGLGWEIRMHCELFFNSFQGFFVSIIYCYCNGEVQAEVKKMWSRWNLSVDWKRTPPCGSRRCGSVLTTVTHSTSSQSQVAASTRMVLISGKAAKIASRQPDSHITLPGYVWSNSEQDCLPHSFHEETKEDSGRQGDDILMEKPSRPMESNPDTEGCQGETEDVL
T2 sequence (P49190 25-550): as above

Row | Molecule | cAMP accumulation Maximum, PTH/PTHrP receptor [3] [pmoles/well] | cAMP accumulation Maximum, PTH-2 receptor [4] [pmoles/well] | cAMP accumulation EC50 [5] [nM] | cAMP accumulation Maximum [5] [pmoles/well] | further results
1 | LNSMERVEFLRKKLQDVHNY-NH2 [[F23, Y34]hPTH-(15-34)NH2] |  |  |  |  | IC50 [1, 8]: > 10 µM; IC50 [2, 8]: > 10 µM
2 | [F23, Y34]hPTH-(1-34)NH2 | 104 ± 16 | 50 ± 8 |  |  | Binding affinity, fold weaker than PTH-(1-34) [1]: 2-3 fold; Reduction in binding potency compared to unsubstituted PTH-(1-34) ([2]; PTH-2 receptor): 28 fold; cAMP agonist activity in words, PTH-2 receptor [4]: nearly a full agonist
3 | [H5, F23, Y34]hPTH-(1-34)NH2 | 110 ± 19 | 7.1 ± 0.9 |  |  | 
4 | [H5, Y34]hPTH-(1-34)NH2 | 116 ± 19 | 10 ± 1 |  |  | Binding in words, PTH/PTHrP receptor ([1]; COS-7 cells): competed very poorly; cAMP agonist activity in words, PTH/PTHrP receptor [3]: efficiently stimulated cAMP formation
5 | [Ile^5, Trp^23]PTHrP-(1-36) [[15, W23, Y36]hPTHrP-(1-36)NH2] | 109 ± 10 | 65 ± 7 |  |  | cAMP agonist activity in words, PTH-2 receptor [4]: as potent and efficacious as PTH-(1-34)
6 | [Ile^5]PTHrP-(1-36) [[15, Y36]hPTHrP-(1-36)NH2] |  | 80 ± 5 |  |  | cAMP agonist activity in words, PTH-2 receptor [4]: full agonist; cAMP EC50, fold higher than that of PTH-(1-34) ([4]; PTH-2 receptor): 12 fold
7 | [Tyr^36]hPTHrP-(1-36)NH2 [[Y36]hPTHrP-(1-36)NH2, reference compound] |  | 11 ± 1 |  |  | Binding affinity, fold weaker than PTH-(1-34) [1]: six-fold weaker binding; Binding in words, PTH/PTHrP receptor ([1]; COS-7 cells): fully inhibited binding of the radioligand; Binding potency, fold weaker than PTH-(1-34) ([2]; PTH-2 receptor): more than 100 fold; Binding in words, PTH-2 receptor ([2]; COS-7 cells): bound poorly; cAMP agonist activity in words, PTH/PTHrP receptor [3]: full and potent agonists; cAMP agonist activity in words, PTH-2 receptor [4]: nearly inactive
8 | [Y36]hPTHrP-(15-36)NH2 |  |  |  |  | Binding in words, PTH-2 receptor ([2]; COS-7 cells): competed weakly
9 | hPTH-(1-14)/[Y34]hPTHrP-(15-34)NH2 [Hybrid-2] | 123 ± 28 |  |  |  | 
10 | hPTHrP-(1-21)/[Y34]hPTH-(22-34)NH2 [Hybrid-4] | 107 ± 17 | 6.7 ± 0.6 |  |  | 
11 | hPTHrP-(1-23)/[Y34]hPTH-(24-34)NH2 [Hybrid 3] | 95 ± 9 | 11 ± 1 |  |  | 
12 | hpTHrP-(1-14)/[Y34]hPTH-(15-34)NH2 [Hybrid-1] | 140 ± 17 | 5.3 ± 0.6 |  |  | cAMP agonist activity in words, PTH-2 receptor [4]: weak activity
13 | hpTHrP-(1-18)/[Y34]hpTH-(19-34)NH2 [Hybrid-5] | 133 ± 14 | 6.2 ± 0.4 |  |  | 
14 | SVSEIQLMHNLGKHLNSMERVEWLRKKLQDVHNY-NH2 [[Tyr^34]hPTH-(1-34)NH2] |  |  | 0.6 | 81 | 
15 | SVSEHQLMHNLGKHLNSMERVEWLRKKLQDVHNY-NH2 [[H5, Y34]hPTH-(1-34)NH2] |  |  | > 1000 | 10 | 
16 | SVSEHQLMHNLGKHLNSMERVEFLRKKLQDVHNY-NH2 [[H5, F23, Y34]hPTH-(1-34)NH2] |  |  | > 1000 | 7.1 | 
17 | AVSEHQLLHDKGKSLNSMERVEWLRKKLQDVHNY-NH2 [Hybrid-1 hPTHrP-(1-14)/[Y34]hPTH-(15-34)NH2] |  |  | > 1000 | 5.3 | 
18 | IQDLRRRFWLHHLIAEIHTAEY-NH2 [[W23, Y36]hPTHrP-(15-36)NH2] |  |  |  |  | IC50 [6]: > 10 µM
19 | IQDLRRRFFLHHLIAEIHTAEY-NH2 [[Y36]hPTHrP-(15-36)NH2] |  |  |  |  | IC50 [6]: > 10 µM
20 | IQDLRRREWLHHLIAEIHTAEY-NH2 [[E22, W23, Y36]hPTHrP-(15-36)NH2] |  |  |  |  | IC50 [6]: > 10 µM
21 | AVSEIQLLHDKGKSIQDLRRRFWLHHLIAEIHTAEY-NH2 (also called [Ile^5, Trp^23]PTHrP-(1-36); [Ile^5,Trp^32]PTHrP-(1-36) [sic]) [[I5, W23, Y36]hPTHrP-(1-36)NH2] |  |  | 0.5 | 65 | IC50 [7]: 10 nM
22 | AVSEIQLLHDKGKSIQDLRRRFFLHHLIAEIHTAEY-NH2 [[I5, Y36]hPTHrP-(1-36)NH2] |  |  | 7 | 80 | 
23 | AVSEHQLLHDKGKSIQDLRRREWLRKKLQDVHNY-NH2 [Hybrid-4 hPTHrP-(1-21)/[Y34]hPTH-(22-34)NH2] |  |  | > 1000 | 6.7 | 
24 | AVSEHQLLHDKGKSIQDLRRRFFLRKKLQDVHNY-NH2 (Synthetic PTH/PTHrP hybrid ligand; also called PTHrP-(1-23)/PTH-(24-34)) [Hybrid-3 hPTHrP-(1-23)/[Y34]hPTH-(24-34)NH2] |  |  | > 1000 | 11 | IC50 [6]: 1 µM
25 | AVSEHQLLHDKGKSIQDLERVEWLRKKLQDVHNY-NH2 (also: radioiodinated in direct binding test, Synthetic PTH/PTHrP hybrid ligand; also called radioiodinated hybrid-5 peptide) [Hybrid-5 hPTHrP-(1-18)/[Y34]hPTH-(19-34)NH2] |  |  | > 1000 | 6.2 | IC50 [7]: 500 nM

Reference: US6362163B1, “Parathyroid hormone-related peptide analogs” (The General Hospital Corporation, priority 1996, dated 2002)
